Measurements reported in US6413931B1, “Peptide inhibitor of fibrinogen blood clotting” (The Texas A&M University System, priority 1999, dated 2002).

Key:
[1] = molecular target: T1, Human Fibrinogen/Bovine Thrombin (Homo sapiens, UniProt P02671+P02675+P02679); assay: Clotting assay (fibrinogen plus thrombin, time to gel-like clot); format: biochemical; conditions: for Human Fibrinogen/Bovine Thrombin Clotting Time: 1 mg/ml fibrinogen, 1 unit/ml thrombin
T1 construct: purchased Chromogenix (Sweden)
T1 sequence (P02671 20-629 limits assumed): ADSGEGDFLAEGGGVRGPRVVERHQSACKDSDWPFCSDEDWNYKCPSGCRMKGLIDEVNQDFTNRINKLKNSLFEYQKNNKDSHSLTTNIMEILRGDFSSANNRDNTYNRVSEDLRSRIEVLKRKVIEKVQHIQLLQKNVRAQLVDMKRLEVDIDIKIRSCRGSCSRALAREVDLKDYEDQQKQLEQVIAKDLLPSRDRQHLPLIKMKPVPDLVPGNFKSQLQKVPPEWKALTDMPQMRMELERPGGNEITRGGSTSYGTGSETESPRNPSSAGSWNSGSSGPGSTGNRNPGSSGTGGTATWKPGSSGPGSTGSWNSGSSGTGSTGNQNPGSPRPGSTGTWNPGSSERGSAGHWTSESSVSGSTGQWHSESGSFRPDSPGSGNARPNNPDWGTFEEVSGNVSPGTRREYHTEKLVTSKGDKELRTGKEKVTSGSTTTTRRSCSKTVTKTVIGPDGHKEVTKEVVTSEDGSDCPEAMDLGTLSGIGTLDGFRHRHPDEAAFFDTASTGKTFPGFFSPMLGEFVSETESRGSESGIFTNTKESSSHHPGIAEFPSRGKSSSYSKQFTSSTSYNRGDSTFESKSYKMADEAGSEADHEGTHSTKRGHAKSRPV
T1 sequence (P02675 31-491): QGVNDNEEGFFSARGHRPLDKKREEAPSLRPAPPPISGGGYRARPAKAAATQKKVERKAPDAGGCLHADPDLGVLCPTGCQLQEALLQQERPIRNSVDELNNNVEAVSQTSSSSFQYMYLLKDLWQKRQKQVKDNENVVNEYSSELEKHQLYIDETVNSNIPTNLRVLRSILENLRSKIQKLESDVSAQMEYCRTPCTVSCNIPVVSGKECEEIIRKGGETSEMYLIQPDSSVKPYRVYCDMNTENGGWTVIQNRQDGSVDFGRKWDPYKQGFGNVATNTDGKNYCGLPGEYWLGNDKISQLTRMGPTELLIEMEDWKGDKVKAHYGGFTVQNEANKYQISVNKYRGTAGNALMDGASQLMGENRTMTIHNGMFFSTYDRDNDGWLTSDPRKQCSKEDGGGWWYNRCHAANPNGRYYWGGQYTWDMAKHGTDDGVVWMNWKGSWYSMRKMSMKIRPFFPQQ
T1 sequence (P02679 27-433 limits assumed): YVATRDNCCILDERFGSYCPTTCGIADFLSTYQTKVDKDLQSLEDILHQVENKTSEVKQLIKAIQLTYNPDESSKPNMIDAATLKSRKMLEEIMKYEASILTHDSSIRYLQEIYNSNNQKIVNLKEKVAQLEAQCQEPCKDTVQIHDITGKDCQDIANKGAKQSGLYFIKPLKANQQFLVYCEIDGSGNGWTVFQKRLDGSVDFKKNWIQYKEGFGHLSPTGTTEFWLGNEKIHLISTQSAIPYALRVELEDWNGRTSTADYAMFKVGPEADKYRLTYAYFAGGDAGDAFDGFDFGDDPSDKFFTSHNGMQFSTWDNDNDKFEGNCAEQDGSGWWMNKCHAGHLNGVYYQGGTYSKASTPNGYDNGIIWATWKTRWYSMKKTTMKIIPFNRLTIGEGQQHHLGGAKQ
Experimental: These tests were conducted by incubating 1 mg of human fibrinogen with desired peptides in 20 mM Tris-HCl, 150 mM NaCl, pH 7.5 in the presence or absence of Zn^2+ for at least 30 min followed by adding 1 unit of bovine thrombin. The total volume of each reaction was 1 ml and the reaction was observed by counting the time for allowing the solution to form a gel like clot in the test tube.
A four amino acid long peptide, G-P-R-P, binds to the γ chain of fibrinogen D fragment and prolongs the clotting time in a closed system containing fibrinogen and thrombin (Laudano, 1978; Laudano, 1980).

fibrinogen D fragment = molecular target: T2, fibrinogen D fragment (Homo sapiens, UniProt P02671+P02675+P02679, DEL434-453); conditions: Laudano, 1978; read-out: reported binding affinity KD to fibrinogen D fragment; cited from earlier work
T2 construct: G-P-R-P peptide to fibrinogen D fragment
T2 sequence (P02671 130-216 limits assumed): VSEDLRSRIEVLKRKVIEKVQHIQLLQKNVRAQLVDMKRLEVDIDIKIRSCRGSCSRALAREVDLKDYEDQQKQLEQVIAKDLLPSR
T2 sequence (P02675 164-491 limits assumed): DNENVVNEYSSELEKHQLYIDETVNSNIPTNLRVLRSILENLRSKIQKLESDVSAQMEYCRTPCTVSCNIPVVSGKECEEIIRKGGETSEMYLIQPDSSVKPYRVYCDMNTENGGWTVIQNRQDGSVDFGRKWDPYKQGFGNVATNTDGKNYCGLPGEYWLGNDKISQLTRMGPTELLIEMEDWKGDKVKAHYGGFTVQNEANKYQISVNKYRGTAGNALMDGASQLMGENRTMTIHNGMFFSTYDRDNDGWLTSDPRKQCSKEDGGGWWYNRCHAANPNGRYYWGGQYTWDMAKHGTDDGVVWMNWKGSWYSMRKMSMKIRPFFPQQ
T2 sequence (P02679 112-433 limits assumed): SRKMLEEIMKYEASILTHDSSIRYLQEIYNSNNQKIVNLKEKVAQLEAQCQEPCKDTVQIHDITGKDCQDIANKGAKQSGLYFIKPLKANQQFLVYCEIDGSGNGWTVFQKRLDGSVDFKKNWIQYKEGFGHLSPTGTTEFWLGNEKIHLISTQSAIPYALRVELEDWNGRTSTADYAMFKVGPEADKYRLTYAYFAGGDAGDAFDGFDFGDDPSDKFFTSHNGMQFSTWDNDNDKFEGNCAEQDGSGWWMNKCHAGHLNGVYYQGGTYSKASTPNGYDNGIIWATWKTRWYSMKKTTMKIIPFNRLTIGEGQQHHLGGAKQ

fibrinogen D fragments = molecular target: T3, fibrinogen D fragments (Homo sapiens, UniProt P02671+P02675+P02679, DEL434-453); assay: Inhibition binding assay: competition with MBP-MD4 for binding to fibrinogen D fragments
T3 construct: Fibrinogen D and E fragment were purchased from Calbiochem; purchased Calbiochem (La Jolla, Calif.)
T3 sequence (P02671 130-216 limits assumed): T2 sequence (P02671 130-216 limits assumed)
T3 sequence (P02675 164-491 limits assumed): T2 sequence (P02675 164-491 limits assumed)
T3 sequence (P02679 112-433 limits assumed): T2 sequence (P02679 112-433 limits assumed)
Experimental: FIG. 8. Competitive binding of MD4 peptide in the interaction of MBP-MD4 to fibrinogen D fragments.
The protocol was based on the enzyme-linked immunosorbant binding assay as described above. However, the inhibitors were mixed with biotin labeled protein and allowed to bind to coated molecules in microtiter wells and incubated for 1 h at room temperature.
To measure the binding affinity of MD4 peptide to fibrinogen D fragments, fluorescence polarization experiments were carried out by incubating fluorescein labeled MD4 peptide with increasing concentration of fibrinogen D fragments and observing the change of polarization. The binding affinity of isolated MD4 peptide to fibrinogen D fragments in the presence of 15 uM ZnCl2 was saturable and the apparent dissociation constant, KD, was (8.4±1.6)×10^−8 M (FIG. 7). Competitive binding to D fragment was compared for a four amino acid peptide, G-P-R-P which is known to bind to fibrinogen γ chain (Pratt, 1997) and to prevent fibrinogen from forming fibrin (Laudano, 1978; Laudano, 1980), reduced and alkylated MD4, unlabeled MD4 peptide, and MBP-MD4. […] MD4 peptide binds to fibrinogen α and β chains in Western ligand binding assays whereas G-P-R-P peptide binds to the γ chain of fibrinogen, therefore, both peptides bound to different sites in D fragment.

| Compound | Human Fibrinogen/Bovine Thrombin Clotting Time ([1]; 1 mM EDTA) [min] | Kd (fibrinogen D fragment) [µM] | competition with MBP-MD4 for binding to fibrinogen D fragments (fibrinogen D fragments) | delay of clot formation ([1]; 100 uM peptide, fibrinogen and thrombin, 15 uM ZnCl2) [min] | Human Fibrinogen/Bovine Thrombin Clotting Time ([1]; peptide 0.1 mM, 20 mM Tris, 150 mM NaCl, 15 μM ZnCl2, pH 7.4) [min] |
| --- | --- | --- | --- | --- | --- |
| O=C(O)CN(CCN(CC(=O)O)CC(=O)O)CC(=O)O [EDTA] | 12 |  |  |  |  |
| G-P-R-P |  | 17 | Neither G-P-R-P peptide, nor reduced and alkylated MD4 peptide could inhibit | 10 | 10 |
